From PubChem BioAssay AID1259407 (Chemical Carcinogenesis Research Information System (CCRIS), 2018)
Calls of active or inactive are those of the source. How the calls were made is not given here.

System: CCRIS mutagenicity, Ames/micronucleus/aberration tests
Experiment: CCRIS mutagenicity studies

## CCOc1ccc(NC(C)=O)cc1
End Point: IN VITRO MICRONUCLEUS, Test System: CHL/IU CELLS, Metabolic Activation: RAT, LIVER, S-9, PHENOBARBITAL AND 5,6-BENZOFLAVONE
  mutagenic call: inactive; negative
End Point: IN VITRO MICRONUCLEUS, Test System: RAT KIDNEY FIBROBLAST NRK-49F, Metabolic Activation: NONE
  mutagenic call: inactive; negative
Test System: AMES SALMONELLA TYPHIMURIUM, Strain/Indicator: TA98, Metabolic Activation: GUINEA PIG, LIVER, S-9, PCB, Method: PREINCUBATION
  mutagenic call: inactive; negative
Test System: AMES SALMONELLA TYPHIMURIUM, Strain/Indicator: TA98, Metabolic Activation: HAMSTER, LIVER, S-9, AROCLOR 1254, Method: STANDARD PLATE
  mutagenic call: inactive; negative
Test System: AMES SALMONELLA TYPHIMURIUM, Strain/Indicator: TA98, Metabolic Activation: HAMSTER, LIVER, S-9, PCB, Method: PREINCUBATION
  mutagenic call: inactive; negative
Test System: AMES SALMONELLA TYPHIMURIUM, Strain/Indicator: TA98, Metabolic Activation: MOUSE, LIVER, S-9, AROCLOR 1254, Method: STANDARD PLATE
  mutagenic call: inactive; negative
Test System: AMES SALMONELLA TYPHIMURIUM, Strain/Indicator: TA98, Metabolic Activation: MOUSE, LIVER, S-9, PCB, Method: PREINCUBATION
  mutagenic call: inactive; negative
Test System: AMES SALMONELLA TYPHIMURIUM, Strain/Indicator: TA98, Metabolic Activation: NONE, Method: PREINCUBATION
  mutagenic call: inactive; negative
Test System: AMES SALMONELLA TYPHIMURIUM, Strain/Indicator: TA98, Metabolic Activation: NONE, Method: STANDARD PLATE
  mutagenic call: inactive; negative
Test System: AMES SALMONELLA TYPHIMURIUM, Strain/Indicator: TA98, Metabolic Activation: RAT, LIVER, S-9, AROCLOR 1254, Method: STANDARD PLATE
  mutagenic call: inactive; negative
Test System: AMES SALMONELLA TYPHIMURIUM, Strain/Indicator: TA98, Metabolic Activation: RAT, LIVER, S-9, PCB, Method: PREINCUBATION
  mutagenic call: inactive; negative
Test System: AMES SALMONELLA TYPHIMURIUM, Strain/Indicator: TA100, Metabolic Activation: GUINEA PIG, LIVER, S-9, PCB, Method: PREINCUBATION
  mutagenic call: active; positive
Test System: AMES SALMONELLA TYPHIMURIUM, Strain/Indicator: TA100, Metabolic Activation: HAMSTER, LIVER, S-9, AROCLOR 1254, Method: STANDARD PLATE
  mutagenic call: active; positive
Test System: AMES SALMONELLA TYPHIMURIUM, Strain/Indicator: TA100, Metabolic Activation: HAMSTER, LIVER, S-9, KANECHLOR 400, Method: PREINCUBATION
  mutagenic call: active; positive
Test System: AMES SALMONELLA TYPHIMURIUM, Strain/Indicator: TA100, Metabolic Activation: HAMSTER, LIVER, S-9, PCB, Method: PREINCUBATION
  mutagenic call: active; positive
Test System: AMES SALMONELLA TYPHIMURIUM, Strain/Indicator: TA100, Metabolic Activation: HAMSTER, LIVER, S-9, Method: PREINCUBATION
  mutagenic call: inactive; negative
Test System: AMES SALMONELLA TYPHIMURIUM, Strain/Indicator: TA100, Metabolic Activation: MOUSE, LIVER, S-9, AROCLOR 1254, Method: STANDARD PLATE
  mutagenic call: inactive; negative
Test System: AMES SALMONELLA TYPHIMURIUM, Strain/Indicator: TA100, Metabolic Activation: MOUSE, LIVER, S-9, PCB, Method: PREINCUBATION
  mutagenic call: inactive; negative
Test System: AMES SALMONELLA TYPHIMURIUM, Strain/Indicator: TA100, Metabolic Activation: NONE, Method: PREINCUBATION
  mutagenic call: inactive; negative
Test System: AMES SALMONELLA TYPHIMURIUM, Strain/Indicator: TA100, Metabolic Activation: NONE, Method: STANDARD PLATE
  mutagenic call: inactive; negative
Test System: AMES SALMONELLA TYPHIMURIUM, Strain/Indicator: TA100, Metabolic Activation: RAT, LIVER, S-9, AROCLOR 1254, Method: STANDARD PLATE
  mutagenic call: inactive; negative
Test System: AMES SALMONELLA TYPHIMURIUM, Strain/Indicator: TA100, Metabolic Activation: RAT, LIVER, S-9, KANECHLOR 400, Method: PREINCUBATION
  mutagenic call: inactive; negative
Test System: AMES SALMONELLA TYPHIMURIUM, Strain/Indicator: TA100, Metabolic Activation: RAT, LIVER, S-9, PCB, Method: PREINCUBATION
  mutagenic call: inactive; negative
Test System: AMES SALMONELLA TYPHIMURIUM, Strain/Indicator: TA100, Metabolic Activation: RAT, LIVER, S-9, Method: PREINCUBATION
  mutagenic call: inactive; negative
Test System: AMES SALMONELLA TYPHIMURIUM, Strain/Indicator: TA1535, Metabolic Activation: HAMSTER, LIVER, S-9, AROCLOR 1254, Method: STANDARD PLATE
  mutagenic call: inactive; negative
Test System: AMES SALMONELLA TYPHIMURIUM, Strain/Indicator: TA1535, Metabolic Activation: MOUSE, LIVER, S-9, AROCLOR 1254, Method: STANDARD PLATE
  mutagenic call: inactive; negative
Test System: AMES SALMONELLA TYPHIMURIUM, Strain/Indicator: TA1535, Metabolic Activation: NONE, Method: STANDARD PLATE
  mutagenic call: inactive; negative
Test System: AMES SALMONELLA TYPHIMURIUM, Strain/Indicator: TA1535, Metabolic Activation: RAT, LIVER, S-9, AROCLOR 1254, Method: STANDARD PLATE
  mutagenic call: inactive; negative
Test System: AMES SALMONELLA TYPHIMURIUM, Strain/Indicator: TA1537, Metabolic Activation: HAMSTER, LIVER, S-9, AROCLOR 1254, Method: STANDARD PLATE
  mutagenic call: inactive; negative
Test System: AMES SALMONELLA TYPHIMURIUM, Strain/Indicator: TA1537, Metabolic Activation: MOUSE, LIVER, S-9, AROCLOR 1254, Method: STANDARD PLATE
  mutagenic call: inactive; negative
Test System: AMES SALMONELLA TYPHIMURIUM, Strain/Indicator: TA1537, Metabolic Activation: NONE, Method: STANDARD PLATE
  mutagenic call: inactive; negative
Test System: AMES SALMONELLA TYPHIMURIUM, Strain/Indicator: TA1537, Metabolic Activation: RAT, LIVER, S-9, AROCLOR 1254, Method: STANDARD PLATE
  mutagenic call: inactive; negative
Test System: AMES SALMONELLA TYPHIMURIUM, Strain/Indicator: TA1538, Metabolic Activation: HAMSTER, LIVER, S-9, AROCLOR 1254, Method: STANDARD PLATE
  mutagenic call: inactive; negative
Test System: AMES SALMONELLA TYPHIMURIUM, Strain/Indicator: TA1538, Metabolic Activation: MOUSE, LIVER, S-9, AROCLOR 1254, Method: STANDARD PLATE
  mutagenic call: inactive; negative
Test System: AMES SALMONELLA TYPHIMURIUM, Strain/Indicator: TA1538, Metabolic Activation: NONE, Method: STANDARD PLATE
  mutagenic call: inactive; negative
Test System: AMES SALMONELLA TYPHIMURIUM, Strain/Indicator: TA1538, Metabolic Activation: RAT, LIVER, S-9, AROCLOR 1254, Method: STANDARD PLATE
  mutagenic call: inactive; negative
Test System: CHINESE HAMSTER V-79, Strain/Indicator: V-79/6-THIOGUANINE, Metabolic Activation: HAMSTER, LIVER, S-9, AROCLOR 1254, Method: SUSPENSION/PLATE
  mutagenic call: active; positive
Test System: CHINESE HAMSTER V-79, Strain/Indicator: V-79/6-THIOGUANINE, Metabolic Activation: NONE, Method: SUSPENSION/PLATE
  mutagenic call: inactive; negative
Test System: CHINESE HAMSTER V-79, Strain/Indicator: V-79/6-THIOGUANINE, Metabolic Activation: RAT, LIVER, S-9, PHENOBARBITAL AND BETA-NAPHTHOFLAVONE, Method: SUSPENSION/PLATE
  mutagenic call: inactive; negative
Test System: E. COLI, Strain/Indicator: WP2 UVRA, Metabolic Activation: HAMSTER, LIVER, S-9, AROCLOR 1254, Method: STANDARD PLATE
  mutagenic call: inactive; negative
Test System: E. COLI, Strain/Indicator: WP2 UVRA, Metabolic Activation: HAMSTER, LIVER, S-9, Method: STANDARD PLATE
  mutagenic call: inactive; negative
Test System: E. COLI, Strain/Indicator: WP2 UVRA, Metabolic Activation: MOUSE, LIVER, S-9, AROCLOR 1254, Method: STANDARD PLATE
  mutagenic call: inactive; negative
Test System: E. COLI, Strain/Indicator: WP2 UVRA, Metabolic Activation: MOUSE, LIVER, S-9, Method: STANDARD PLATE
  mutagenic call: inactive; negative
Test System: E. COLI, Strain/Indicator: WP2 UVRA, Metabolic Activation: NONE, Method: STANDARD PLATE
  mutagenic call: inactive; negative
Test System: E. COLI, Strain/Indicator: WP2 UVRA, Metabolic Activation: RAT, LIVER, S-9, AROCLOR 1254, Method: STANDARD PLATE
  mutagenic call: inactive; negative
Test System: E. COLI, Strain/Indicator: WP2 UVRA, Metabolic Activation: RAT, LIVER, S-9, Method: STANDARD PLATE
  mutagenic call: inactive; negative

## O=C(N=c1sn(C(=O)c2ccc([N+](=O)[O-])cc2)c2ccc(Cl)cc12)c1ccc([N+](=O)[O-])cc1
Test System: AMES SALMONELLA TYPHIMURIUM, Strain/Indicator: TA100, Metabolic Activation: S-9, Method: STANDARD PLATE
  mutagenic call: active; positive

## NNC(=O)NC(=O)NN
Test System: E. COLI WP2, Strain/Indicator: WP2, Metabolic Activation: NONE, Method: STANDARD PLATE
  mutagenic call: active; positive
